Experimental data: paper PMC5790795, “N-Acetylmuramic Acid (MurNAc) Auxotrophy of the Oral Pathogen Tannerella forsythia: Characterization of a MurNAc Kinase and Analysis of Its Role in Cell Wall Metabolism” (Frontiers in Microbiology, 2018)

Target: T1, Tf_MurK (rTf_MurK; Tanf_08380) (Tannerella forsythia, UniProt G8UQH1)
T1 construct: gene BFO_0034
T1 sequence (G8UQH1 19-302): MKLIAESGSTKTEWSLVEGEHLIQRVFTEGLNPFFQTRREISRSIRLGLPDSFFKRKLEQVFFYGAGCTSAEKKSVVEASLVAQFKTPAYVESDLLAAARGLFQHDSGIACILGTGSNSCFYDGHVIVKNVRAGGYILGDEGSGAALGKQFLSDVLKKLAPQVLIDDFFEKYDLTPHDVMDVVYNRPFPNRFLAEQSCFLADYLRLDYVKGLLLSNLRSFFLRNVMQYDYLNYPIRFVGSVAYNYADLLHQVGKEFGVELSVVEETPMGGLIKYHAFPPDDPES
Assay: coupled pyruvate kinase / lactate dehydrogenase assay, NADH at […] nm
Format: biochemical
Settings: ATP, 10 mM MgCl2, 50 mM phosphate pH 7.0, 20 °C; substrate inhibition constant

## CC(=O)N[C@H]1C(O)O[C@H](CO)[C@@H](O)[C@@H]1O[C@H](C)C(=O)O (stereo partly shown) [MurNAc]
  Ki(S): 4.2 mM
